Assay results published in ChEMBL document CHEMBL5385955, “Minor Hydroxylated Triterpenoids Produced in Engineered Yeast by the Enzymes OSC and CYP716s from the Plant Enkianthus chinensis and Their Anti-Inflammatory and Hepatoprotective Activities” (2024).
Activity calls are given as the source filed them. No cut-off for these calls is given here.

Columns and labels:
[1] = system: HepG2; experiment: Hepatoprotective activity against acetaminophen-induced cell damage in human HepG2 cells assessed as increase in cell survival at 10 uM incubated for 24 hrs by CCK-8 assay relative to control; format: functional; conditions: read-out: Survival
[2] = system: RAW264.7; experiment: Antiinflammatory activity in LPS-induced mouse RAW264.7 cells assessed as reduction in IL-1beta production at 10 to 40 uM incubated for 24 hrs by ELISA; format: functional, cell-based; conditions: dose 10-40 µM
[3] = system: RAW264.7; experiment: Antiinflammatory activity in LPS-induced mouse RAW264.7 cells assessed as reduction in IL-1beta mRNA expression incubated for 24 hrs by qPCR analysis; format: functional, cell-based; conditions: dose 10-40 µM
[4] = system: RAW264.7; experiment: Antiinflammatory activity in LPS-induced mouse RAW264.7 cells assessed as inhibition of NO production at 10 to 40 uM incubated for 24 hrs by Griess reagent based assay; format: functional, cell-based; conditions: dose 10-40 µM
[5] = system: RAW264.7; experiment: Antiinflammatory activity in LPS-induced mouse RAW264.7 cells assessed as reduction in IL-6 production at 10 to 40 uM incubated for 24 hrs by ELISA; format: functional, cell-based; conditions: dose 10-40 µM
[6] = system: RAW264.7; experiment: Antiinflammatory activity in LPS-induced mouse RAW264.7 cells assessed as reduction in IL-6 mRNA expression incubated for 24 hrs by qPCR analysis; format: functional, cell-based; conditions: dose 10-40 µM

| Compound | viability at 10 µM [1] | further results |
| --- | --- | --- |
| C[C@H]1[C@H](C)CC[C@]2(C)CC[C@]3(C)C(=CC[C@@H]4[C@@]5(C)CC[C@H](O)C(C)(C)[C@@H]5CC[C@]43C)[C@H]12 | 61% | – |
| COC(=O)c1cc(OC)c2c(c1-c1c(CO)cc(OC)c3c1OCO3)OCO2 [BICYCLOL] | 60% | – |
| CC1(C)CC[C@]2(CO)CC[C@]3(C)C(=CC[C@@H]4[C@@]5(C)CC[C@H](O)C(C)(C)[C@@H]5CC[C@]43C)[C@@H]2C1 [ERYTHRODIOL] | 61% | Activity [2]: Active; Activity [3]: Dose-Dependent Effect; Activity [4]: Active; Activity [5]: Active; Activity [6]: Dose-Dependent Effect |
| C[C@H]1[C@H](C)CC[C@]2(CO)CC[C@]3(C)C(=CC[C@@H]4[C@@]5(C)CC[C@H](O)C(C)(C)[C@@H]5CC[C@]43C)[C@H]12 [UVAOL] | 61% | – |
| CC1(C)CC[C@]2(C)CC[C@]3(C)C(=CC[C@@H]4[C@@]5(C)CC[C@H](O)C(C)(C)[C@@H]5CC[C@]43C)[C@@H]2C1 [beta-AMYRIN] | 61% | – |
